Results as given in patent US12350458B2, “Apparatus and method for skin treatment” (Brain Tunnelgenix Technologies Corp., priority 2015, dated 2025).

Method: Referring to FIG. 1, an epidermis 1506 and a dermis 1508 are collectively referred to as a superficial skin layer 1520 herein. An area of a skin 1500 where cold is applied is referred to herein as a cold site. […] Skin blood flow rate in both the cold site and normothermic site was measured using a laser Doppler perfusion imaging system. Studies also compared plasma concentration of drug 1510 in subjects at the cold site and the normothermic site. […] In one exemplary experiment skin blood flow was measured 15 min after application of cold, and every 15 min thereafter for a total of 3 hours.

## O=C(O)c1ccccc1O [salicylic acid]
  concentration of drug in superficial skin layer of cold site, higher compared to normothermic site: about 80%
human, in vivo
  plasma concentration at cold site, lower compared to normothermic site: about 60%
  plasma concentration, cold site: about 45 nmol/ml
